# Test system: mouse fecal microbiota
# Assay: Gut microbiota community structure (16S rRNA V4-V5 sequencing, β-diversity, PCoA) after 3 weeks on experimental diets
# Type: in vivo
# Conditions: adult male C57bl/6 mice, 3 weeks of feeding; versus Control-fed or SAL-fed mice; ADONIS p<0.05
# Source text: Adult male C57bl/6 strains of Mus musculus (Charles Rivers Laboratories, Wilmington, MA) between 6-8 weeks of age were used in the study. After being received from the vendor, mice were placed on one of three experimental diets. Animals were given ad libitum access to water, and maintained on the experimental diets for 3 weeks. Experimental diets were: (1) Control diet (AlN-93G mouse chow); (2) AlN-93G supplemented with galactooligosaccharides (GOS 21.2 g/kg)+polydextrose (PDX 6.6 g/kg)+sialyllactose (SAL 2 g/kg); (3) AlN-93G supplemented with SAL.
# Colon contents were removed via direct excision for metabolomic analysis, and the colon tissue was briefly washed in a PBS bath so as to not disturb the mucous layer. DNA was extracted from the medial section of the colon (˜10 mg) using a Qiagen DNA Mini Kit, following manufacturer's instructions with slight modifications. Briefly, tissues were incubated for 45 min at 37° C. in lysozyme buffer (20 mg/ml lysozyme, 20 mM TrisHCL, 2 mM EDTA, 1.2% Triton-x, pH 8.0), then bead-beat for 150 sec with 0.7 mm zirconia beads. Samples were incubated at 56° C. for 2 hr with Buffer ATL and Proteinase K, then incubated at 56° C. for 30 min and 95° C. for 10 min upon addition of Buffer AL. […] DNA was quantified with the Qubit 2.0 Fluorometer (Life Technologies, Carlsbad, CA) using the dsDNA Broad Range Assay Kit. […]
substance,measurement,value
sialyllactose [SAL],"mouse fecal microbiota community structure (β-diversity; Unweighted UniFrac), PCoA clustering",not achieved

# Reference: patent publication US20250134122A1, “PEDIATRIC NUTRITIONAL COMPOSITIONS AND METHODS FOR INFANTS DELIVERED BY C-SECTION” (Mead Johnson Nutrition Company, priority 2018, published 2025)
